The text below walks through data of a melting point compilation (Tetko et al.; mined from patent text by program, amines drawn as free bases though some values may be those of a salt).

A value given as a limit tells only on which side of the number the result lay.

`CSCCCn1nc(-c2cccc(C(F)(F)F)c2F)c(=O)c2ccccc21` registered a melting point of 80 to 83 °C.
Then `CCOC(=O)Nc1cc2c3ccccc3n(CC)c2cn1`, with 217 to 218 °C; and `CCN1CN(C)C(=S)N(c2cc(Cl)ccc2C)C1`, with 93 to 95 °C; and `CCOC(=O)OC12Oc3cc(C(C)C)ccc3C1(O)C(=O)c1ccccc12` (stereo not given), with 144 to 147 °C.
The value for `Cc1nc(N2CCc3ccccc3CC2)c(C#N)c(=O)n1C[C@H]1COC(C)(C)O1` was 166 to 168 °C; that for `CC(C)Cc1nn(C)c(=O)c2cn(Cc3cccc4ccccc34)nc12` was 166 to 167 °C.
Then `COc1ccc(C(=O)c2c(N)sc(C)c2C)cc1OC`, with 172 to 173 °C.
On to `COc1cc(CCNC(=O)C(F)(F)F)ccc1[N+](=O)[O-]`, for which the melting point stood at 104 °C.
The value for `Cc1cc(Br)cn2cc(-c3ccc(C#N)cc3)nc12` was 209 to 210 °C; that for `O=C(O)CCCc1ccc(NS(=O)(=O)c2ccc(Cl)c(Cl)c2)cn1` was 193 to 194 °C.
Then `COc1ccc(Cl)c(Cc2c(Cl)nc(N3CCOCC3)nc2NS(=O)(=O)c2ccc(C(C)(C)C)cc2)c1`, with 159 to 162 °C.
On to `COc1ccc(N=Nc2ccc(O)c(C(=O)Nc3ccc4[nH]nnc4c3)c2)cc1`, for which the melting point is 275 to 276 °C.
The value for `CCc1ccc(Br)c(CC)c1-n1cncc1C(=O)O` was 224 to 227 °C.
Then `Cc1ccc(S(=O)(=O)N2CCCC(S(=O)(=O)c3ccc(F)cc3)C2)cc1` (stereo not given), with 186 °C; and `CCOCCOc1ccc(C(O)CNC(C)CCc2ccccc2)cc1C(=O)OC` (stereo not given), with 100 to 101 °C.
The value for `CCC(=O)c1ccc(NC(C)=O)cc1` was 169 to 170 °C; that for `FC(F)Oc1cccc(-c2ccc3nnn(Cc4ccc5ncccc5c4)c3n2)c1` was 122 to 125 °C; that for `CC(=O)C(=[N+]=[N-])C(=O)OCc1ccc([N+](=O)[O-])cc1` was 132 °C.
Compound `CC1(C)NC(=O)N(CC(CS(=O)(=O)c2ccc(-c3ccc(C(F)(F)F)cc3)cc2)N(O)C=O)C1=O` (stereo not given) returned a melting point of 180 to 182 °C.
Then `COc1ccc(C2=NN(C3CCN(c4ccc([N+](=O)[O-])cc4)CC3)C(=O)[C@@H]3CC=CC[C@H]23)cc1OC`, with 196 to 197 °C; and `Cc1cccc(NC(=O)CN2CCN(c3ccccn3)CC2)c1`, with 126 to 127 °C; and `COC(=O)C1(C(=O)OC)CN(C(=O)OC(C)(C)C)c2cc([N+](=O)[O-])c3ccccc3c21`, with 151 °C.
The value for `O=C(CCC(=O)N[C@@H]1CCc2ccccc21)N[C@@H]1CCc2ccccc21` was 266 to 269 °C; that for `CCc1ccc(Nc2nnc(Cc3ccnc(OC)c3)c3ccccc23)cc1Br` was 133 to 135 °C.
Then `CCC1CC(C)(C)Oc2c1cc(C(C)=O)c(O)c2C` (stereo not given), with 92 to 93 °C.
Regarding `CC(C)COc1ccc(Br)cc1N(Cc1ccc(N(C)C)cc1)C(=O)C1CCCc2ccccc21` (stereo not given), the melting point lay within 176 to 178 °C.
Then `O=C(O)Cc1ccc2c(c1)Cc1ccccc1CC2=O`, with 178 to 181 °C; and `COc1cc(OC)c2cnoc2c1`, with 100 to 101 °C; and `Cc1c(Br)c2c(c3c1C(c1ccc(C(C)C)cc1)CO3)CCC2` (stereo not given), with 127 to 128 °C.
The value for `CC(=O)SCC(Cc1ccc(C)cc1)C(=O)Nc1cccc(C(=O)O)c1` (stereo not given) was 174 to 175 °C; that for `CCCc1c(OCCOCCOc2ccc3ccc(OCC(=O)OC)cc3c2C(C)=O)ccc(C(C)=O)c1O` was 89 to 90 °C; that for `COc1ccc(N2CCN(c3ccc(-n4cnnc4SC)cc3)CC2)cc1` was 180 °C.
The value for `CCOC(OCC)c1cn2cccc(CO)c2n1` was 87 to 89 °C; that for `CC(C)CCCOc1nc(N)c([N+](=O)[O-])cc1Cl` was 53 to 54 °C; that for `CC(C)NC(=O)N(Nc1cccc(Cl)c1Cl)C1=CCCN1` was 109 to 111 °C.
With `CCCCc1ccc(NCC)c(C(=O)C(=O)OC(=O)C(=O)c2cc(CCCC)ccc2NCC)c1`, the melting point fell in the range of 130 to 132 °C.
`CCOC(=O)C1=C(C)NC(CS)=C(C(=O)OCC)C1c1cccc([N+](=O)[O-])c1` (stereo not given): the melting point lay in the range of 145 to 147 °C.
The value for `CC(=O)OC1C(CO)OC(n2cnc3c(N)ncnc32)C1O` (stereo not given) was 195 to 201 °C; that for `Cc1ccc(C(=O)NCc2ccccc2)cc1-c1nc(S(C)(=O)=O)nc2c1CNC(=O)N2c1c(F)cccc1F` was 239 to 241 °C; that for `CCOC(=O)CCCNc1cccc(Br)c1` was 65 °C.
The value for `N#Cc1ccc(C(=O)N2CCN(C(=O)C3CCN(c4ccncn4)CC3)CC2)cc1` was 192 to 193 °C; that for `CC1(C)CCC(C)(C)c2cc(-c3nnc(-c4ccc(C(N)=O)cc4)o3)ccc21` was 272 to 274 °C; that for `CCCOc1ccccc1-c1nc2nc(NCCCO)ncc2c(=O)[nH]1` was 185 to 186 °C.
The value for `COC(=O)CC1(C)C(=O)N(C)c2ccc(OC)cc21` (stereo not given) was 83 to 84 °C; that for `CNC1C(O)CC2C3CCc4cc(O)cc(C)c4C3CCC21C` (stereo not given) was 215 to 231 °C; that for `COc1ccc(COC(=O)C(N)CCCCNC(=O)OC(C)(C)C)cc1` (stereo not given) was 118 to 120 °C.
`CC(C)(C)OC(=O)NCCCCC(=O)Nc1ccc(O)c(C(=O)O)c1` registered a melting point of 181 °C.
The value for `CCOC(=O)c1cc2cc(Oc3ccc(S(C)(=O)=O)cc3)cc(OC)c2[nH]1` was 161 to 162 °C.
Then `Cc1ccccc1SN(C(=O)NC(=O)c1ccccc1Cl)c1ccc(OC(F)(F)F)cc1`, with 79 to 80 °C; and `CCOC(=O)c1ccccc1-c1cc(-c2cccc(C(F)(F)F)c2)no1`, with 28 to 30 °C.
Regarding `CCOC(=O)COc1cccc(Cl)c1`, the melting point lay within 39 to 40 °C.
The value for `Cc1ccccc1C(=O)Nc1ccc(C(=O)N2CCS(=O)(=O)c3ccccc32)cc1` was 219 to 220 °C; that for `Cc1nn(C)c2nc(N)[nH]c(=O)c12` was greater than 300 °C.
Then `O=S(=O)(Cl)CCCCCCCc1ccc(OCc2ccccc2)cc1`, with 33 to 35 °C.
Then `CCOC(=O)C(Oc1cccc2[nH]ccc12)C(=O)OCC`, with 52 to 53 °C; and `CNC(=O)OC(Cn1ccnc1)c1ccc(Cl)cc1Cl` (stereo not given), with 106 to 108 °C.
`CCC1(CSc2ccccc2C(=O)c2ccccc2)COC(=O)N1` (racemic): the melting point lay within 103 to 104 °C.
`O=C(O)c1cc2cc(F)ccc2n1Cc1ccncc1` registered a melting point of 282 to 283 °C.
Then `O=C(NC(=O)c1c(F)cccc1F)Nc1cc(Cl)c(Cl)c(Cl)c1`, with 231 to 232 °C; and `C=C1c2[nH]c3ccc(OC)cc3c2CCN1C=O`, with 180 to 181 °C.
The value for `NNC(=O)Cc1cc(C(=O)c2ccc(Br)cc2)sc1-c1ccccc1` was 157 to 161 °C; that for `CC12CC(=O)C3C(CCC4CC(=O)CCC43C)C1CCC2C(=O)CCl` (stereo not given) was 168 to 172 °C.
Then `O=C1CCC(N2Cc3c(CNC(=S)NC4CCCCC4)cccc3C2=O)C(=O)N1` (stereo not given), with greater than 260 °C.
With `Cc1c(N2CC[C@H]([C@@H](C)NC(=O)OC(C)(C)C)C2)c(F)cc2c(=O)n(N)c(=O)n(C3CC3)c12`, the melting point lay in the range of 84 to 86 °C.
The value for `CC1(C)Cc2cc(C(=O)O)sc2C1` was 170 to 172 °C; that for `CC1(C)Cc2c(F)cccc2C(c2cnc3ccccc3c2)=N1` was 97 to 100 °C.
The value for `CCc1cnn(CC(=O)O)c1OCCCc1cn(-c2ccc(C(F)(F)F)cn2)nc1C(C)C` was 111 to 112 °C; that for `Nc1ncc(Cc2ccc3ccccc3c2)c(N)n1` was 231 to 233 °C; that for `O=[N+]([O-])c1ccc(S(=O)(=O)C2COCC2Br)cc1` (stereo not given) was 155 to 157 °C.
`N#Cc1cnc2sc(-c3ccccc3)cc2c1Nc1cccc2cc[nH]c12`: the melting point is greater than 245 °C.
The value for `CC1=CCC(O)(C(C)(C)Sc2ccccc2)CC1` (stereo not given) was 73 to 74 °C; that for `CCCCCCCCCCc1ccc2cc(SC)c(O)cc2c1` was 64.4 to 65.4 °C.
The value for `Cn1cncc1C(O)c1ccc2nc(Cl)nc(-c3cccc(Cl)c3)c2c1` (stereo not given) was 140 °C; that for `O=C1c2ccccc2-n2cnc(-c3noc(CCl)n3)c2[C@@H]2CCCN12` was 205 to 206 °C; that for `COc1ccccc1-n1nnc2cc(F)c(NC(C)=O)cc21` was 174 to 175 °C.
The value for `CCOC(=O)c1cnc(-c2cc(N)ccc2OCC)[nH]c1=O` was 107 to 110 °C; that for `CN(C)C(=O)N(C)c1nnc(C(C)(C)C#N)s1` was 92 to 94 °C; that for `COC1=C(C)C(=O)c2ccccc2C1=O` was 93 to 94 °C.
In the case of `O=Cc1ccc(OCCn2ncc3ccccc3c2=O)cc1`, the melting point fell in the range of 104 to 106 °C.
For the compound `C(=CCON(c1ccccc1)c1ccccc1)CON(c1ccccc1)c1ccccc1`, the melting point lay in the range of 74 to 76 °C.
Consider `COC(=O)CCNC1(C)CCN(c2ncc3ncnc(Nc4ccc(F)c(Cl)c4)c3n2)CC1`, for which the melting point lay within 134 to 135 °C.
Then `CCSC/C=C\c1cc(F)c2ncc(C(=O)NCc3ccc(Cl)cc3)c(O)c2c1`, with 203 to 205 °C; and `O=c1c(Nc2ccc(Cl)cc2)nc2ccccc2n1-c1ccc(Cl)cc1`, with 258 to 260 °C; and `COc1cccc(CN2CCc3cc(O)c(OC)cc3C2)c1`, with 161 to 162 °C.
The value for `C[C@H](CSC(=O)C1CCCCC1)C(=O)N1CSC[C@H]1C(=O)O` was 79.5 to 80 °C; that for `CC(C)(CCCCCCCCCCC(C)(C)CCC(=O)O)CCC(=O)O` was 71 to 72 °C.
As to `CC(=O)Nc1cccc2c1SC(C)C2` (stereo not given), the melting point lay in the range of 125 to 127 °C.
The value for `CC(=O)OCCCCCn1ccc(=O)c(O)c1C` was 132 to 133 °C; that for `O=C(N=C1CCCN1Cc1ccccc1)Nc1cccc(Cl)c1` was 91 to 93 °C.
The value for `O=c1c2ccccc2cnn1Cc1ccccc1` was 104 to 105 °C.
